Reference: the supplement of paper PMC8967900

How the values were obtained:
Experiment in all cases: selective drug sensitivity score (sDSS, relative to normal bone marrow) (sDSS (score)); higher = more potent and effective on the cell line relative to normal bone marrow cells
Conditions in all cases: 72 h
[1] = test system: 697
[2] = test system: ALL-SIL
[3] = test system: COG-LL-317
[4] = test system: COG-LL-332h
[5] = test system: COG-LL-355h
[6] = test system: DND-41
[7] = test system: HPB-ALL
[8] = test system: KARPAS-45
[9] = test system: KASUMI-2
[10] = test system: KOPN-8
[11] = test system: LC4-1
[12] = test system: MHH-CALL-4
[13] = test system: MOLT-14
[14] = test system: MOLT-4
[15] = test system: NALL-1
[16] = test system: P12-ICHIKAWA
[17] = test system: PEER
[18] = test system: SEM cells
[19] = test system: TANOUE
[20] = test system: TMD5
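Note: ALL cell lines in 384-well plates, five doses spanning 10,000-fold, each plate scaled between vehicle and 100 µmol/L benzalkonium chloride controls, sDSS an adapted area-under-curve metric.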

Structure (SMILES) | selective drug sensitivity score [1] | selective drug sensitivity score [2] | selective drug sensitivity score [3] | selective drug sensitivity score [4] | selective drug sensitivity score [5] | selective drug sensitivity score [6] | selective drug sensitivity score [7] | selective drug sensitivity score [8] | selective drug sensitivity score [9] | selective drug sensitivity score [10] | selective drug sensitivity score [11] | selective drug sensitivity score [12] | selective drug sensitivity score [13] | selective drug sensitivity score [14] | selective drug sensitivity score [15] | selective drug sensitivity score [16] | selective drug sensitivity score [17] | selective drug sensitivity score [18] | selective drug sensitivity score [19] | selective drug sensitivity score [20]
CNS(=O)(=O)Nc1nccc(Cc2c(C)c3ccc(Oc4ncccn4)cc3oc2=O)c1F (top concentration 1000 nM) | 0.02 | 0.42 | -1.08 | -1.08 | 0.02 | 3.92 | -1.18 | -0.28 | 1.12 | 2.42 | -0.18 | 1.02 | -0.98 | -1.18 | 2.22 | -0.98 | 0.22 | 1.82 | -1.18 | -1.18
C[C@H]1Oc2cc(cnc2N)-c2c(nn(C)c2C#N)CN(C)C(=O)c2ccc(F)cc21 (top concentration 1000 nM) | -0.72 | -0.32 | -0.72 | -0.72 | 2.18 | -0.72 | -0.72 | -0.72 | 4.68 | 11.3 | -0.72 | -0.72 | -0.72 | -0.72 | -0.72 | -0.72 | -0.72 | -0.72 | -0.72 | -0.62
CCc1cncnc1N1CCN(Cc2nc3cc(C(F)(F)F)ccc3[nH]2)CC1 (top concentration 10000 nM) | 4.16 | 1.76 | 1.26 | 1.46 | -0.14 | 0.56 | 0.96 | 2.46 | 2.76 | 8.36 | 4.16 | 5.46 | 0.16 | 2.16 | 8.66 | 3.66 | 4.56 | 9.76 | 3.26 | -0.84
CN(C)CC#Cc1ccc(OCCCc2sc(N3CCc4cccc(C(=O)Nc5nc6ccccc6s5)c4C3)nc2C(=O)O)c(F)c1 (top concentration 10000 nM) | -2.04 | 37.6 | 39.8 | 15.7 | 27.2 | 34 | 24.9 | 38.5 | 5.86 | 3.46 | 0.36 | 9.16 | 12.3 | 34.8 | 3.46 | 39.3 | 31.8 | -0.24 | -3.34 | -3.64
O=C(NC[C@H](O)CN1CCc2ccccc2C1)c1cc(NC2COC2)ncn1 (top concentration 10000 nM) | 0.84 | -0.06 | 10.6 | 1.54 | -0.06 | -0.06 | 3.44 | 0.04 | -0.06 | -0.06 | -0.06 | -0.06 | -0.06 | 2.74 | -0.06 | 0.24 | -0.06 | -0.06 | -0.06 | -0.06
O=C1Cc2cc(C(=O)NC3C[C@H]4CC[C@@H](C3)N4S(=O)(=O)CC3CCN(CCCC(F)(F)F)CC3)c(Cl)cc2N1 (stereo not given in full) (top concentration 10000 nM) | 0 | 0 | 0 | 0 | 0.9 | 0 | 0.5 | 0 | 0 | 0 | 0 | 0 | 0 | 0 | 0.6 | 0 | 0 | 0 | 0 | 2.6
CC/C(=C(\c1ccc(O)cc1)c1ccc(OCCN(C)C)cc1)c1ccccc1 [4-hydroxytamoxifen] (top concentration 10000 nM) | 1.32 | 1.22 | 0.62 | 0.82 | 1.72 | 2.72 | 0.52 | 1.52 | -3.78 | 3.22 | 0.72 | 0.42 | 0.32 | 0.62 | -1.78 | 2.02 | 2.32 | 1.62 | -2.88 | -1.78
COCC1(CO)C(=O)C2CCN1CC2 (stereo not given) [APR-246] (top concentration 10000 nM) | 0.24 | -1.16 | -1.16 | -0.56 | 2.44 | -1.16 | 2.14 | -1.16 | -1.16 | 0.54 | 0.74 | 0.64 | -1.16 | -1.16 | -1.16 | -1.16 | -1.16 | -1.16 | 4.54 | -1.16
Cc1sc2c(c1C)C(c1ccc(Cl)cc1)=N[C@@H](CC(=O)Nc1ccc(OCCOCCOCCOCCNc3cccc4c3C(=O)N(C3CCC(=O)NC3=O)C4=O)cc1)c1nnc(C)n1-2 (stereo not given in full) [ARV-825] (top concentration 300 nM) | 3.14 | -6.46 | -0.26 | -1.46 | 10.2 | 0.84 | -10.9 | -8.06 | -4.46 | 4.14 | 3.64 | 7.54 | -0.86 | -10.4 | -12.1 | -7.46 | -0.46 | 2.24 | -17.1 | 0.14
COc1cc(OC2CCN(C)CC2)ccc1Nc1ncc2c(n1)n(C1CCCC1)c(=O)n2C [AZ3146] (top concentration 10000 nM) | 1.04 | 2.14 | 0.74 | 1.34 | 2.94 | 0.24 | 3.14 | 0.94 | -4.16 | 4.54 | 3.14 | 0.64 | 2.04 | 1.84 | -2.16 | 0.64 | 2.54 | 2.04 | -4.16 | -4.06
